Results published in ChEMBL document CHEMBL4422655, “Osthenol, a prenylated coumarin, as a monoamine oxidase A inhibitor with high selectivity” (Bioorg Med Chem Lett, 2019).

What was measured:
[1] = target: T1, Amine oxidase [flavin-containing] A (Mus musculus, UniProt Q64133); test: Inhibition of MAO-A in mouse brain mitochondrial fraction using kynuramine as substrate after 30 mins by fluorometric analysis
T1 sequence (Q64133 whole entry): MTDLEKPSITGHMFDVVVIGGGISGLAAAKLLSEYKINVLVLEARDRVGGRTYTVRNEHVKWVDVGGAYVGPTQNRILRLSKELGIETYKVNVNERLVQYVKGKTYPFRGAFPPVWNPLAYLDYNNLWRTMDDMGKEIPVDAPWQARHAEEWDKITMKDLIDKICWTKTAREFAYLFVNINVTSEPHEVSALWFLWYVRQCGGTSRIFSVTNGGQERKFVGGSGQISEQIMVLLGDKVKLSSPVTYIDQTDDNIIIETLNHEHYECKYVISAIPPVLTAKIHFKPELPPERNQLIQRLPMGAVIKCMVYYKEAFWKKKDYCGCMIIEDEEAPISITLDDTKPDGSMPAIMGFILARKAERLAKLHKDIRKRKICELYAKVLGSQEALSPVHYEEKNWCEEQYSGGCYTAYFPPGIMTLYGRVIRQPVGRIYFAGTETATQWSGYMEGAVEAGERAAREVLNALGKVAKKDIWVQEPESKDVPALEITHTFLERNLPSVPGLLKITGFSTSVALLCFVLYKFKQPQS

[2] = target: T2, Amine oxidase [flavin-containing] A (Homo sapiens, UniProt P21397); test: biochemical
T2 sequence (P21397 whole entry): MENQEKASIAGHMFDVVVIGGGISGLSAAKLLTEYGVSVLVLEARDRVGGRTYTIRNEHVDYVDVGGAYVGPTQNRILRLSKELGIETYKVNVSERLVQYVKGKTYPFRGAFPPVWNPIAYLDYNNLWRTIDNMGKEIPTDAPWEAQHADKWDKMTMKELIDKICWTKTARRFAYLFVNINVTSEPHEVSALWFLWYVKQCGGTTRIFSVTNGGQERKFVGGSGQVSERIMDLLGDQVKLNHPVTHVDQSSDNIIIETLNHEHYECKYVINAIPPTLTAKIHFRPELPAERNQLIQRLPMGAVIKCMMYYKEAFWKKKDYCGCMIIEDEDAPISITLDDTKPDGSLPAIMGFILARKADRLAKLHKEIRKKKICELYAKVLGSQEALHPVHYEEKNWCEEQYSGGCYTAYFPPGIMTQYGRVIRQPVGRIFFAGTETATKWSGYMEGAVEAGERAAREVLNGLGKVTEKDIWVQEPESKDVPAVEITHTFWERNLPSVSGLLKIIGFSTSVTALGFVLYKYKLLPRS

[3] = target: T2, Amine oxidase [flavin-containing] A; test: Inhibition of human recombinant MAO-A expressed in baculovirus infected BTI insect cells using kynuramine as substrate assessed as residual activity at 10 uM after 20 mins by spectrophotometric analysis relative to control; details: read-out: Activity
[4] = target: T2, Amine oxidase [flavin-containing] A; test: biochemical; remark: listed apart in the source
[5] = target: T3, Amine oxidase [flavin-containing] B (Homo sapiens, UniProt P27338); test: Inhibition of human recombinant MAO-B expressed in baculovirus infected BTI insect cells using benzylamine as substrate assessed as residual activity at 10 uM after 30 mins by spectrophotometric analysis relative to control; details: 0.5 h, read-out: Activity
T3 sequence (P27338 whole entry): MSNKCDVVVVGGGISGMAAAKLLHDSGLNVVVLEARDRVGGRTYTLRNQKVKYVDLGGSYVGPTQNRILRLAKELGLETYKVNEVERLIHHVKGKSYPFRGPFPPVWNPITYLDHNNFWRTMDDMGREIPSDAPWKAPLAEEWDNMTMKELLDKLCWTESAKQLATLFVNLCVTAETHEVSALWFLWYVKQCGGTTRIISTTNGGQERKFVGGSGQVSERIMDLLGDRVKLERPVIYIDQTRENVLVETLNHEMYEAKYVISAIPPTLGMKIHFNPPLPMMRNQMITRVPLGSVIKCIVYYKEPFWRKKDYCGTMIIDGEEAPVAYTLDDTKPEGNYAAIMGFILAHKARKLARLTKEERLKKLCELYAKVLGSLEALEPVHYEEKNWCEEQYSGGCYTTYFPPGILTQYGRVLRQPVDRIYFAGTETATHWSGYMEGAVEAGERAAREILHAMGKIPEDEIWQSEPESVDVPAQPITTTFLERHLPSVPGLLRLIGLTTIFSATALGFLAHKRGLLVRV

Acetylcholinesterase = Acetylcholinesterase (Electrophorus electricus, UniProt O42275); test: Inhibition of electric eel AChE using acetylthiocholine iodide as substrate preincubated for 15 mins followed by substrate addition by Ellman's method
Acetylcholinesterase, sequence (O42275 whole entry): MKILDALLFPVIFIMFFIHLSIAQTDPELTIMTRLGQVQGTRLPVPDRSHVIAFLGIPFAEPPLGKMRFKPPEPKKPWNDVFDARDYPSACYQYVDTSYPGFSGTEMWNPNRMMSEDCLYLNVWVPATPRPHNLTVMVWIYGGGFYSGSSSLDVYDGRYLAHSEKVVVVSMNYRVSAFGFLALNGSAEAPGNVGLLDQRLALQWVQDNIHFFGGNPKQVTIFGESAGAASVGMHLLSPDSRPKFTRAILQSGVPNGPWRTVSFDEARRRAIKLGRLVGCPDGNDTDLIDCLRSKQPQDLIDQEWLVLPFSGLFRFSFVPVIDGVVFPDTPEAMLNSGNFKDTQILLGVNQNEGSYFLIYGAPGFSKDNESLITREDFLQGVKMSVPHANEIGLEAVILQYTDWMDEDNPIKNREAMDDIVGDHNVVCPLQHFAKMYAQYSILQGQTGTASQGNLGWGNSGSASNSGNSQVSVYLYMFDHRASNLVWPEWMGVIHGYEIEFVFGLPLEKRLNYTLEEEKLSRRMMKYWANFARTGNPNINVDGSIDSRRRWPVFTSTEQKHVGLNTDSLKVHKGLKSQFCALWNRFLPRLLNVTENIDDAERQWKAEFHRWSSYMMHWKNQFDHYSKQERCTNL

[6] = target: T4, Amine oxidase [flavin-containing] A (Rattus norvegicus, UniProt P21396); test: Inhibition of MAO-A in Sprague-Dawley rat brain mitochondrial fraction after 10 mins in presence of [14C]5-hydroxytryptamine by liquid scintillation analysis
T4 sequence (P21396 whole entry): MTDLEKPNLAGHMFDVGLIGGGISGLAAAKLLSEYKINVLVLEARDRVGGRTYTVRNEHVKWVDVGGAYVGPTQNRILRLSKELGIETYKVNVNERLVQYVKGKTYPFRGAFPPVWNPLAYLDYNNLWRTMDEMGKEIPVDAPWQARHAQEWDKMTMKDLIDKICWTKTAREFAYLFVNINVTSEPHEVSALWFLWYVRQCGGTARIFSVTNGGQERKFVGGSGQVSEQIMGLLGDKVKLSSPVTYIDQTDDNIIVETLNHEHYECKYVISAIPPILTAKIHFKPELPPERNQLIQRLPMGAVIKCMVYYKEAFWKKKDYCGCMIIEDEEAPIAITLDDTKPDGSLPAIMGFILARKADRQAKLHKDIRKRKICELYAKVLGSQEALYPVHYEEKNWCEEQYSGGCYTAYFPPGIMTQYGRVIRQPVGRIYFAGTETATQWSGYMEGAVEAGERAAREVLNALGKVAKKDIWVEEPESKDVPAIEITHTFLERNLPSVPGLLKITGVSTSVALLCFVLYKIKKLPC

Homo sapiens [7] = species: Homo sapiens; test: Selectivity index, ratio of IC50 for human recombinant MAO-B expressed in baculovirus infected BTI insect cells to IC50 for human recombinant MAO-A expressed in baculovirus infected BTI insect cells
[8] = target: T3, Amine oxidase [flavin-containing] B; test: biochemical; assay type: cell-based
[9] = target: T2, Amine oxidase [flavin-containing] A; test: Irreversible inhibition of human recombinant MAO-A expressed in baculovirus infected BTI insect cells assessed as residual activity at 0.01 uM incubated for 30 mins followed by dialysis using kynuramine as substrate by spectrophotometric analysis relative to control; details: 0.5 h, read-out: Activity
[10] = target: T2, Amine oxidase [flavin-containing] A; test: Irreversible inhibition of human recombinant MAO-A expressed in baculovirus infected BTI insect cells assessed as residual activity at 0.01 uM incubated for 30 mins using kynuramine as substrate by spectrophotometric analysis relative to control; details: 0.5 h, read-out: Activity
[11] = target: T2, Amine oxidase [flavin-containing] A; test: Inhibition of human recombinant MAO-A expressed in baculovirus infected BTI-TN-5B1-4 insect cells using p-tyramine as substrate after 15 mins by resorufin dye-based spectrometric analysis
[12] = target: T2, Amine oxidase [flavin-containing] A; test: Reversible inhibition of human recombinant MAO-A expressed in baculovirus infected BTI insect cells assessed as residual activity at 1.5 uM incubated for 30 mins followed by dialysis using kynuramine as substrate by spectrophotometric analysis relative to control; details: 0.5 h, read-out: Activity
[13] = target: T2, Amine oxidase [flavin-containing] A; test: Reversible inhibition of human recombinant MAO-A expressed in baculovirus infected BTI insect cells assessed as residual activity at 1.5 uM incubated for 30 mins using kynuramine as substrate by spectrophotometric analysis relative to control; details: 0.5 h, read-out: Activity
Homo sapiens [14] = species: Homo sapiens; test: Selectivity index, ratio of IC50 for human recombinant MAO-B to IC50 for human recombinant MAO-A
[15] = target: T2, Amine oxidase [flavin-containing] A; test: Inhibition of human MAO-A using kynuramine as substrate after 30 mins by spectrophotometric analysis
[16] = target: T2, Amine oxidase [flavin-containing] A; test: Reversible inhibition of human recombinant MAO-A expressed in baculovirus infected BTI insect cells assessed as residual activity at 2 uM incubated for 30 mins using kynuramine as substrate by spectrophotometric analysis relative to control; details: 0.5 h, read-out: Activity
[17] = target: T2, Amine oxidase [flavin-containing] A; test: Reversible inhibition of human recombinant MAO-A expressed in baculovirus infected BTI insect cells assessed as residual activity at 2 uM incubated for 30 mins followed by dialysis using kynuramine as substrate by spectrophotometric analysis relative to control; details: 0.5 h, read-out: Activity

Row | Structure (SMILES) | activity at 10 µM [3] [%] | IC50 [4] [µM] | activity at 10 µM [5] [%] | IC50 (Acetylcholinesterase) [µM] | Ratio IC50 (Homo sapiens [7]) | IC50 [8] [µM] | other results
1 | C=C(C)C(O)CC/C(C)=C/COc1ccc2ccc(=O)oc2c1 (stereo not drawn) | – | – | – | – | – | – | IC50 [1]: 1.3 µM
2 | O=c1ccc2ccc3occc3c2o1 [ANGELICIN] | 12 | 0.88 | 27.2 | 25.4 | 3.1 | 2.73 | Ki [2]: 0.46 µM; IC50 [6]: 9 µM
3 | O=c1ccc2c(ccc3ccoc32)o1 [BAKUCHICIN] | 18.6 | 1.78 | 37.8 | 35.7 | 3.1 | 5.44 | –
4 | C#CCN(C)CCCOc1ccc(Cl)cc1Cl [CLORGILINE] | – | – | – | – | – | – | activity at 0.01 µM [9]: 23.3%; activity at 0.01 µM [10]: 20.4%
5 | Oc1ccc(/C=C/c2cc(O)cc3c2[C@@H](c2cc(O)cc(O)c2)[C@H](c2ccc(O)cc2)O3)cc1 [EPSILON-VINIFERIN] | – | – | – | – | – | – | IC50 [11]: 19.6 µM
6 | CC(C)=CCOc1c2ccoc2cc2oc(=O)ccc12 [ISOIMPERATORIN] | 76.2 | > 20 | 78.3 | 25.6 | – | > 60 | –
7 | COc1ccc(-c2oc3cc(O)cc(O)c3c(=O)c2O)cc1 [KAEMPFERIDE] | – | 0.19 | – | – | 0.89 | – | –
8 | CC(C)=CCc1c(O)ccc2ccc(=O)oc12 [OSTHENOL] | 9.9 | 0.74 | 84.7 | 25.3 | > 81.1 | > 60 | Ki [2]: 0.26 µM; activity at 1.5 µM [12]: 90.7%; activity at 1.5 µM [13]: 23.7%
9 | O=c1ccc2cc3ccoc3cc2o1 [PSORALEN] | 71 | > 20 | 78.3 | 29.5 | – | > 60 | –
10 | COc1cc(O)c2c(=O)c(O)c(-c3ccc(O)cc3)oc2c1 [RHAMNOCITRIN] | – | – | – | – | – | – | Ratio IC50 (Homo sapiens [14]): 58.2; IC50 [15]: 0.051 µM
11 | COc1cc2ccc(=O)oc2cc1O [SCOPOLETIN] | 97 | > 20 | 97.7 | 35.8 | – | > 60 | –
12 | Cc1cccc(N2CC(CO)OC2=O)c1 (stereo not drawn) [TOLOXATONE] | – | – | – | – | – | – | activity at 2 µM [16]: 28.4%; activity at 2 µM [17]: 88.6%
